Experimental data reported in US12486240B2, “Oxadiazole compounds for controlling or preventing phytopathogenic fungi” (PI INDUSTRIES LTD., priority 2019, dated 2025).

Test system: Phakopsora pachyrhizi
Assay: Phakopsora pachyrhizi test on soybean (preventive spray)
Type: in vivo
Settings: preventive spray on soybean plants, inoculated one day after treatment, rated 3, 7, 10 and 15 days after application, read-out: Efficacy (% control) from disease severity rating versus untreated control
Method: Example 5: Phakopsora pachyrhizi Test on Soybean Compounds were dissolved in 2% dimethyl sulfoxide/acetone and then mixed with water containing an emulsifier to a calibrated spray volume of 50 mL. This 50 mL spray solution was poured into spray bottles for further applications. To test the preventive activity of compounds, healthy young Soybean plants raised in the greenhouse were sprayed with the active compound preparation at the stated application rates inside the spray cabinets using hollow cone nozzles. One day after treatment, the plants were inoculated with a spore suspension containing 2×10^5 Phakopsora pachyrhizi conidia. The inoculated plants were then kept in a greenhouse chamber at 22-24° C. temperature and 80-90% relative humidity for disease expression. A visual assessment of the compound's performance was carried out by rating the disease severity (0-100% scale) on treated plants 3, 7, 10 and 15 days after application. Efficacy (% control) of the compounds was calculated by comparing the disease rating in the treatment with the one of the untreated control. The sprayed plants were also assessed for plant compatibility by recording symptoms like necrosis, chlorosis and stunting.

SMILES	pest or weed control at 500 ppm [%]
CN(Cc1ccccc1)c1c(Nc2ccc(-c3noc(C(F)(F)F)n3)cc2)c(=O)c1=O [Compound 1, 3-(benzyl(methyl)amino)-4-((4-(5-(trifluoromethyl)-1,2,4-oxadiazol-3-yl)phenyl)amino)cyclobut-3-ene-1,2-dione]	≥ 70
COc1c(Nc2ccc(-c3noc(C(F)(F)F)n3)cc2)c(=O)c1=O [Compound 2, 3-methoxy-4((4-(5-(trifluoromethyl)-1,2,4-oxadiazol-3-yl)phenyl)amino)cyclobut-3-ene-1,2-dione]	≥ 70
O=c1c(Nc2ccc(-c3noc(C(F)(F)F)n3)cc2)c(N2CCOCC2)c1=O [Compound 4, 3-morpholino-4((4-(5-(trifluoromethyl)-1,2,4-oxadiazol-3-yl)phenyl)amino)cyclobut-3-ene-1,2-dione]	≥ 70
COC1CCN(c2c(Nc3ccc(-c4noc(C(F)(F)F)n4)cc3)c(=O)c2=O)C1 (stereo not shown) [Compound 5, 3-(3-methoxypyrrolidin-1-yl)-4-((4-(5-(trifluoromethyl)-1,2,4-oxadiazol-3-yl)phenyl)amino)cyclobut-3-ene-1,2-dione]	≥ 70
CCOC1CN(c2c(Nc3ccc(-c4noc(C(F)(F)F)n4)cc3)c(=O)c2=O)C1 [Compound 6, 3-(3-ethoxyazetidin-1-yl)-4-((4-(5-(trifluoromethyl)-1,2,4-oxadiazol-3-yl)phenyl)amino)cyclobut-3-ene-1,2-dione]	≥ 70
O=c1c(Nc2ccc(-c3noc(C(F)(F)F)n3)cc2)c(N2CCC2)c1=O [Compound 9, 3-(azetidin-1-yl)-4-((4-(5-(trifluoromethyl)-1,2,4-oxadiazol-3-yl)phenyl)amino)cyclobut-3-ene-1,2-dione]	≥ 70
CN(Cc1cc(F)cc(F)c1)c1c(Nc2ccc(-c3noc(C(F)(F)F)n3)cc2)c(=O)c1=O [Compound 10, 3((3,5-difluorobenzyl)(methyl)amino)-4-((4-(5-(trifluoromethyl)-1,2,4-oxadiazol-3-yl)phenyl)amino)cyclobut-3-ene-1,2-dione]	≥ 70
CCCN(C)c1c(Nc2ccc(-c3noc(C(F)(F)F)n3)cc2)c(=O)c1=O [Compound 11, 3-(methyl(propyl)amino)-4-((4-(5-(trifluoromethyl)-1,2,4-oxadiazol-3-yl)phenyl)amino)cyclobut-3-ene-1,2-dione]	≥ 70
CN(C)c1c(Nc2ccc(-c3noc(C(F)(F)F)n3)cc2)c(=O)c1=O [Compound 12, 3-(dimethylamino)-4-((4-(5-(trifluoromethyl)-1,2,4-oxadiazol-3-yl)phenyl)amino)cyclobut-3-ene-1,2-dione]	≥ 70
O=C1CN(c2c(Nc3ccc(-c4noc(C(F)(F)F)n4)cc3)c(=O)c2=O)CCN1 [Compound 13, 3-(3-oxopiperazin-1-yl)-4-((4-(5-(trifluoromethyl)-1,2,4-oxadiazol-3-yl)phenyl)amino)cyclobut-3-ene-1,2-dione]	≥ 70
C=CCN(C)c1c(Nc2ccc(-c3noc(C(F)(F)F)n3)cc2)c(=O)c1=O [Compound 14, 3-(allyl(methyl)amino)-4-((4-(5-(trifluoromethyl)-1,2,4-oxadiazol-3-yl)phenyl)amino)cyclobut-3-ene-1,2-dione]	≥ 70
N#CC1CCN(c2c(Nc3ccc(-c4noc(C(F)(F)F)n4)cc3)c(=O)c2=O)C1 (stereo not shown) [Compound 15, 1-(3,4-dioxo-2-((4-(5-(trifluoromethyl)-1,2,4-oxadiazol-3-yl)phenyl)amino)cyclobut-1-en-1-yl)pyrrolidine-3-carbonitrile]	≥ 70
CN1CCN(c2c(Nc3ccc(-c4noc(C(F)(F)F)n4)cc3)c(=O)c2=O)CC1 [Compound 16, 3-(4-methylpiperazin-1-yl)-4-((4-(5-(trifluoromethyl)-1,2,4-oxadiazol-3-yl)phenyl)amino)cyclobut-3-ene-1,2-dione]	≥ 70
O=c1c(NCc2ccc(-c3noc(C(F)(F)F)n3)cc2)c(N2CCOCC2)c1=O [Compound 17, 3-morpholino-4-((4-(5-(trifluoromethyl)-1,2,4-oxadiazol-3-yl)benzyl)amino)cyclobut-3-ene-1,2-dione]	≥ 70
COc1c(NCc2ccc(-c3noc(C(F)(F)F)n3)cc2)c(=O)c1=O [Compound 18, 3-methoxy-4-((4-(5-(trifluoromethyl)-1,2,4-oxadiazol-3-yl)benzyl)amino)cyclobut-3-ene-1,2-dione]	≥ 70
COCCNc1c(NCc2ccc(-c3noc(C(F)(F)F)n3)cc2)c(=O)c1=O [Compound 19, 3-((2-methoxyethyl)amino)-4-((4-(5-(trifluoromethyl)-1,2,4-oxadiazol-3-yl)benzyl)amino)cyclobut-3-ene-1,2-dione]	≥ 70

SMILES	pest or weed control at 500 ppm [%]
C=CCNc1c(NCc2ccc(-c3noc(C(F)(F)F)n3)cc2)c(=O)c1=O [Compound 20, 3-(allylamino)-4-((4-(5-(trifluoromethyl)-1,2,4-oxadiazol-3-yl)benzyl)amino)cyclobut-3-ene-1,2-dione]	≥ 70
O=c1c(NCc2ccc(-c3noc(C(F)(F)F)n3)cc2)c(N2CCSCC2)c1=O [Compound 31, 3-thiomorpholino-4-((4-(5-(trifluoromethyl)-1,2,4-oxadiazol-3-yl)benzyl)amino)cyclobut-3-ene-1,2-dione]	≥ 70
O=c1c(NCc2ccc(-c3noc(C(F)(F)F)n3)cc2)c(N2CC(O)C2)c1=O [Compound 32, 3-(3-hydroxyazetidin-1-yl)-4-((4-(5-(trifluoromethyl)-1,2,4-oxadiazol-3-yl)benzyl)amino)cyclobut-3-ene-1,2-dione]	≥ 70
O=c1c(NCc2ccc(-c3noc(C(F)(F)F)n3)cc2)c(N2CCC(F)(F)C2)c1=O [Compound 33, 3-(3,3-difluoropyrrolidin-1-yl)-4-((4-(5-(trifluoromethyl)-1,2,4-oxadiazol-3-yl)benzyl)amino)cyclobut-3-ene-1,2-dione]	≥ 70
COc1c(N(C)Cc2ccc(-c3noc(C(F)(F)F)n3)cc2)c(=O)c1=O [Compound 41, 3-methoxy-4-(methyl(4-(5-(trifluoromethyl)-1,2,4-oxadiazol-3-yl)benzyl)amino)cyclobut-3-ene-1,2-dione]	≥ 70
CN(Cc1ccc(-c2noc(C(F)(F)F)n2)cc1)c1c(N2CCOCC2)c(=O)c1=O [Compound 42, 3-(methyl(4-(5-(trifluoromethyl)-1,2,4-oxadiazol-3-yl)benzyl)amino)-4-morpholinocyclobut-3-ene-1,2-dione]	≥ 70
CN(Cc1ccc(-c2noc(C(F)(F)F)n2)cc1)c1c(N2CCCC2)c(=O)c1=O [Compound 44, 3-(methyl(4-(5-(trifluoromethyl)-1,2,4-oxadiazol-3-yl)benzyl)amino)-4-(pyrrolidin-1-yl)cyclobut-3-ene-1,2-dione]	≥ 70
COC1CN(c2c(N(C)Cc3ccc(-c4noc(C(F)(F)F)n4)cc3)c(=O)c2=O)C1 [Compound 45, 3-(3-methoxyazetidin-1-yl)-4-(methyl(4-(5-(trifluoromethyl)-1,2,4-oxadiazol-3-yl)benzyl)amino)cyclobut-3-ene-1,2-dione]	≥ 70
CN(Cc1ccc(-c2noc(C(F)(F)F)n2)cc1)c1c(N2CC(C#N)C2)c(=O)c1=O [Compound 46, 1-(2-(methyl(4-(5-(trifluoromethyl)-1,2,4-oxadiazol-3-yl)benzyl)amino)-3,4-dioxocyclobut-1-en-1-yl)azetidine-3-carbonitrile]	≥ 70
CN(Cc1ccc(-c2noc(C(F)(F)F)n2)cc1)c1c(N2CCC2)c(=O)c1=O [Compound 47, 3-(azetidin-1-yl)-4-(methyl(4-(5-(trifluoromethyl)-1,2,4-oxadiazol-3-yl)benzyl)amino)cyclobut-3-ene-1,2-dione]	≥ 70
CC(C)OC1CN(c2c(N(C)Cc3ccc(-c4noc(C(F)(F)F)n4)cc3)c(=O)c2=O)C1 [Compound 48, 3-(3-isopropoxyazetidin-1-yl)-4-(methyl(4-(5-(trifluoromethyl)-1,2,4-oxadiazol-3-yl)benzyl)amino)cyclobut-3-ene-1,2-dione]	≥ 70
CN(Cc1ccc(-c2noc(C(F)(F)F)n2)cc1)c1c(N2CC3(COC3)C2)c(=O)c1=O [Compound 49, 3-(methyl(4-(5-(trifluoromethyl)-1,2,4-oxadiazol-3-yl)benzyl)amino)-4-(2-oxa-6-azaspiro[3.3]heptan-6-yl)cyclobut-3-ene-1,2-dione]	≥ 70
CN(Cc1ccc(-c2noc(C(F)(F)F)n2)cc1)c1c(N2CCC(F)(F)C2)c(=O)c1=O [Compound 50, 3-(3,3-difluoropyrrolidin-1-yl)-4-(methyl(4-(5-(trifluoromethyl)-1,2,4-oxadiazol-3-yl)benzyl)amino)cyclobut-3-ene-1,2-dione]	≥ 70
CC(C)Nc1c(N(C)Cc2ccc(-c3noc(C(F)(F)F)n3)cc2)c(=O)c1=O [Compound 51, 3-(isopropylamino)-4-(methyl(4-(5-(trifluoromethyl)-1,2,4-oxadiazol-3-yl)benzyl)amino)cyclobut-3-ene-1,2-dione]	≥ 70
CN1CCN(c2c(N(C)Cc3ccc(-c4noc(C(F)(F)F)n4)cc3)c(=O)c2=O)CC1 [Compound 52, 3-(methyl(4-(5-(trifluoromethyl)-1,2,4-oxadiazol-3-yl)benzyl)amino)-4-(4-methylpiperazin-1-yl)cyclobut-3-ene-1,2-dione]	≥ 70
